Results on five compounds are retold here after patent publication US20250367283A1, “MEVALONATE PATHWAY INHIBITOR AS HIGHLY-EFFICIENT VACCINE ADJUVANT” (Tsinghua University, priority 2015, published 2025).

One assay concerns anti-OVA IgG. Put plainly: Comparison with existing adjuvants: IgG titer after boost. The assay is classed as in vivo, mice. Particulars: 100 μg adjuvant, intramuscular, 7th day after third immunization.
For assay [1], the target named is HsGGPPS (humanized geranylgeranyl pyrophosphate synthase) (Homo sapiens (Human), UniProt O95749). Put plainly: HsGGPPS enzyme inhibition test. The assay is classed as biochemical. As for the experimental part: The inhibitory activities of compounds TH-Z144 and TH-Z145 on GGPPS (geranylgeranyl pyrophosphate synthase) were tested by referring to the expression and purification method for HsGGPPS (humanized geranylgeranyl pyrophosphate synthase) in the reference (Szabo, C. M., et al., Inhibition of Geranylgeranyl Diphosphate Synthase by Bisphosphonates and Diphosphates: A Potential Route to New Bone Antiresorption and Antiparasitic Agents. Journal of Medicinal Chemistry, 2002. 45 (11): p. 2185-2196.) and the method for testing enzyme activity in the reference (Zhang, Y., et al., Lipophilic Bisphosphonates as Dual Farnesyl/Geranylgeranyl Diphosphate Synthase Inhibitors: An X-ray and NMR Investigation. Journal of the American Chemical Society, 2009. 131 (14): p. 5153-5162.) The data of the activity test were as follows: […]
Chain of HsGGPPS (humanized geranylgeranyl pyrophosphate synthase) (O95749 whole entry, looked up): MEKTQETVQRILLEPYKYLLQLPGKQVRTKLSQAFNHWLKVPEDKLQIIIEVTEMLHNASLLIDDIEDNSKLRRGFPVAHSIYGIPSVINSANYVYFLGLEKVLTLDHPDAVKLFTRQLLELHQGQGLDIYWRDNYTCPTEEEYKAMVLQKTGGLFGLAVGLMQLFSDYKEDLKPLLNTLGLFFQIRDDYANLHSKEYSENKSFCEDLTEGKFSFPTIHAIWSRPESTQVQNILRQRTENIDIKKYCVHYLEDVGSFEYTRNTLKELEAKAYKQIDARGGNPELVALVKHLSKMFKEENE

For assay [2], the system named is anti-OVA IgM and IgG antibodies. Put plainly: Combined adjuvant effect of FPPS inhibitor and TLR agonist, OVA titer. Type of assay: in vivo, mice. As for the experimental part:
Two compounds, TH-Z93 and Imiquimod, were formulated at a concentration of 4 mg/ml, and OVA antigen at a concentration of 10 mg/ml. When used alone, 5 μl of TH-Z93 or imiquimod was added as an adjuvant and mixed with 10 μl of antigen and 5 μl of PBS. When two adjuvants were used in combination, each of the adjuvants were added in an amount of 5 μl and mixed with 10 μl of antigen, and the total volumes were 20 μl. The mice used are of C57B/6 strain. An equal volume of PBS without any adjuvant was used for mice in the control group. The mice was injected at the soles of the right feet. On Day 7 and Day 14 after immunization, blood was taken from the mice's orbits, and 100 μl was taken for each mouse. The obtained blood was left at 4° C. overnight, and then the serum was separated. The titers of anti-OVA IgM and IgG antibodies in the serum were determined.

The subject of another assay is Vγ9Vδ2 T cells. Put plainly: Expansion of Vγ9Vδ2 T cells from PBMCs. The assay is classed as cell-based, human. Particulars: 4 μM bisphosphonate, 200 U/mL rIL-2, day 12. The protocol: Human peripheral blood mononuclear cells (PBMCs) were prepared from healthy volunteers by Ficoll-Hypaque density gradient centrifugation. […] Cells were harvested on day 12 and stained with FITC-anti-CD3 (Miltenyi Biotec) and PE-anti-[…] (Miltenyi Biotec) monoclonal antibodies. Flow cytometry was used for detection. Prism 5.0 was used to analyze the data.

The test system of the next assay is anti-OVA serum antibody. Briefly: OVA immunization with bisphosphonates (Example 15), serum antibody titer. Type of assay: in vivo, mice. The settings on record: 100 μg, intramuscular, 14 days. As for the experimental part: During the immunization, the antigen we used was ovalbumin (OVA). Mice were c57bl/6 female mice at the age of 8 weeks. OVA was formulated at a concentration of 1 mg/ml and bisphosphonate concentration was 1 mg/ml. OVA and bisphosphonates were mixed at a ratio of 1:1 at the time of immunization. Mice were injected intramuscularly with […]. 100 μg of OVA and 100 μg of bisphosphonate per mouse. 14 days after immunization, 100 μl of orbital blood was taken from each mouse.
The whole blood which had been obtained was placed in a 4° C. freezer overnight. The next day, the whole blood at 4° C. was centrifuged at a speed of 6000 rpm at a temperature of 4° C. for 5 minutes. After the centrifugation, the upper serum was carefully taken out and centrifuged again at a speed of 6000 rpm at a temperature of 4° C. for 5 minutes. The upper serum was taken again. Serum was frozen and stored at-20° C. and thawed when tested.
1. Coating: antigen OVA was diluted to a protein content of 2 μg/ml with 0.05M pH 9.6 carbonate coating buffer. Each reaction well of a polystyrene plate was coated with 50 μl of the solution overnight at 4° C. or 2 h at 37° C. […]
7. On an ELISA detector, the OD value was read at 490 nm. Titers of serum antibody were calculated. Serum dilutions were calculated as titers of serum antibody based on an OD value greater than or equal to 1.5 times of the reading of the negative control well.

Regarding “(2-(3-(octyloxy)phenyl)ethane-1,1-diyl)bisphosphonic acid [TH-Z145]”, the “IgG antibody titer after boost vs PBS control” value in the assay with anti-OVA IgG is on record as “significantly high titers”. For the same compound, the “IC50 (inhibition of GGPPS)” value in assay [1] is given as “effectively inhibit the activity of GGPPS”. Besides, in assay [1] (read-out: IC50 (inhibition of GGPPS)), the IC50 is 660 nM.
With `CCC(C)(C)C(=O)O[C@H]1C[C@@H](C)C=C2C=C[C@H](C)[C@H](CC[C@@H]3C[C@@H](O)CC(=O)O3)[C@H]21` [simvastatin, reference compound], the “IgG antibody titer after boost vs PBS control” value in the assay with anti-OVA IgG was “significantly high titers”.
As to `CCCCCCOc1ccnc(NC(P(=O)(O)O)P(=O)(O)O)c1` [TH-Z93, (((4-(hexyloxy)pyridin-2-yl)amino)methylene)bisphosphonic acid], the “IgG antibody titer after boost vs PBS control” value in the assay on anti-OVA IgG is given as “significantly high titers”. The “antibody titers vs PBS control, adjuvant used alone” value in assay [2] (soles of right feet) is “significant high titers”. Besides, in assay [2] (used alone), the “antibody titers vs imiquimod alone” value was “significantly superior to those of mice treated with imiquimod alone”.
Take `CCCCCCOc1ccc2c(c1)ncn2CC(O)(P(=O)(O)O)P(=O)(O)O` [TH-Z80]: in the assay with anti-OVA IgG, the “IgG antibody titer after boost vs PBS control” value is given as “significantly high titers”. In addition, the “amplification effect on Vγ9Vδ2 T cells” value in the assay on Vγ9Vδ2 T cells is “best amplification effect on Vγ9Vδ2 T cells”. Moreover, the “antibody titers vs conventional bisphosphonates” value with anti-OVA serum antibody is “higher titers of antibodies than conventional bisphosphonates”.
As for `CCCCCCCCOc1ccc2c(c1)ncn2CC(O)(P(=O)(O)O)P(=O)(O)O` [TH-Z81], in the assay with anti-OVA serum antibody, the “adjuvant effect by carbon chain length of the side chain” value is reported as “strongest effect as an adjuvant”.

Broadly, the IC50 is the midpoint of a concentration-inhibition curve.
